What was measured:
Type in all cases: in vivo
[1] = system: common ragweed (AMBEL; Ambrosia artemisiifolia); experiment: Test I pre-/postemergence, mixtures of Cpd. No. 20 with saflufenacil or pyroxasulfone; settings: for Plant response rating (0 to 100 scale): AMBEL
Description: (§1) This test evaluated the effect of mixtures of Cpd. No. 20 with saflufenacil or pyroxasulfone on several plant species. Seeds of plant species selected from corn (ZEAMD; Zea mays, cv. ‘Pioneer 1184’), soybean (GLXMA; Glycine max, cv. Pioneer 35T58), giant foxtail (SETFA; Setaria faberi), palmer amaranth (AMAPA; Amaranthus palmeri), common waterhemp (AMATU; Amaranthus rudis), mare's tail (ERICA; Conyza canadensis), and common ragweed (AMBEL; Ambrosia artemisiifolia) were planted in pots containing Tama Silt Loam soil and treated preemergence with a directed soil spray using test chemicals formulated in a non-phytotoxic solvent mixture which included a surfactant.
(§2) At the same time, plants selected from these crop and weed species were planted in pots containing Redi-Earth® planting medium (Scotts Company, 14111 Scottslawn Road, Marysville, Ohio 43041) comprising spaghnum peat moss, vermiculite, wetting agent and starter nutrients and treated postemergence with test chemicals formulated in the same manner. Plants ranged in height from 2 to 10 cm and were in the one- to two-leaf stage for the postemergence treatment. Treated plants and untreated controls were maintained in a greenhouse for approximately 14-21 d, after which time all treated plants were compared to untreated controls and visually evaluated for injury. Plant response ratings, summarized in Tables 11 to 14, are based on a 0 to 100 scale where 0 is no effect and 100 is complete control. A dash (-) response means no test result. Test results are presented as a mean of 4 reps.

[2] = system: corn (ZEAMD; Zea mays, cv. ‘Pioneer 1184’); experiment: as above; settings: for Plant response rating (0 to 100 scale): ZEAMD
Description: as §1, §2

[3] = system: palmer amaranth (AMAPA; Amaranthus palmeri); experiment: Test K pre-/postemergence, mixtures of Cpd. No. 20 with metribuzin or rimsulfuron
Description: as §1, with “metribuzin” for “saflufenacil”, “rimsulfuron” for “pyroxasulfone”
as §2, with “Tables K1” for “Tables 11”, “to K4,” for “to 14,”

[4] = system: mare's tail (ERICA; Conyza canadensis); experiment: as above
Description: as §1, with “metribuzin” for “saflufenacil”, “rimsulfuron” for “pyroxasulfone”
as §2, with “Tables K1” for “Tables 11”, “to K4,” for “to 14,”

[5] = system: giant foxtail (SETFA; Setaria faberi); experiment: as above
Description: as §1, with “metribuzin” for “saflufenacil”, “rimsulfuron” for “pyroxasulfone”
as §2, with “Tables K1” for “Tables 11”, “to K4,” for “to 14,”

[6] = system: soybean (GLXMA; Glycine max, cv. Pioneer 35T58); experiment: as above
Description: as §1, with “metribuzin” for “saflufenacil”, “rimsulfuron” for “pyroxasulfone”
as §2, with “Tables K1” for “Tables 11”, “to K4,” for “to 14,”

[7] = system: common waterhemp (AMATU; Amaranthus rudis); experiment: as above
Description: as §1, with “metribuzin” for “saflufenacil”, “rimsulfuron” for “pyroxasulfone”
as §2, with “Tables K1” for “Tables 11”, “to K4,” for “to 14,”

[8] = system: common ragweed (AMBEL; Ambrosia artemisiifolia); experiment: as above
Description: as §1, with “metribuzin” for “saflufenacil”, “rimsulfuron” for “pyroxasulfone”
as §2, with “Tables K1” for “Tables 11”, “to K4,” for “to 14,”

[9] = system: corn (ZEAMD; Zea mays, cv. ‘Pioneer 1184’); experiment: as above
Description: as §1, with “metribuzin” for “saflufenacil”, “rimsulfuron” for “pyroxasulfone”
as §2, with “Tables K1” for “Tables 11”, “to K4,” for “to 14,”

[10] = Preemergence, Cpd. No. 20 8 g a.i./ha alone
[11] = preemergence, Cpd. No. 20 16 g a.i./ha alone
[12] = preemergence, Cpd. No. 20 31 g a.i./ha alone
[13] = preemergence, Cpd. No. 20 62 g a.i./ha alone

Structure (SMILES): Cc1ccc2ccc(C)c(-c3c(O)c(Cl)nn(C)c3=O)c2c1 [Cpd. No. 20, 6-chloro-4-(2,7-dimethyl-1-naphthalenyl)-5-hydroxy-2-methyl-3(2H)-pyridazinone]
- Plant response rating (0 to 100 scale) [1, 10]: 0
- AMBEL plant response rating, 0 to 100 scale ([1]; postemergence, 8 g a.i./ha): 86
- AMBEL plant response rating, 0 to 100 scale ([1]; postemergence, 16 g a.i./ha): 90
- AMBEL plant response rating, 0 to 100 scale ([1]; postemergence, 31 g a.i./ha): 100
- AMBEL plant response rating, 0 to 100 scale ([1]; postemergence, 62 g a.i./ha): 94
- AMBEL plant response rating, 0 to 100 scale ([1]; preemergence, 8 g a.i./ha): 0
- AMBEL plant response rating, 0 to 100 scale ([1]; preemergence, 16 g a.i./ha): 10
- AMBEL plant response rating, 0 to 100 scale ([1]; preemergence, 31 g a.i./ha): 69
- AMBEL plant response rating, 0 to 100 scale ([1]; preemergence, 62 g a.i./ha): 98
- Plant response rating (0 to 100 scale) [1, 11]: 10
- Plant response rating (0 to 100 scale) [1, 12]: 69
- Plant response rating (0 to 100 scale) [1, 13]: 98
- Plant response rating (0 to 100 scale) [2, 10]: 0
- ZEAMD plant response rating, 0 to 100 scale ([2]; postemergence, 8 g a.i./ha): 0
- ZEAMD plant response rating, 0 to 100 scale ([2]; postemergence, 16 g a.i./ha): 0
- ZEAMD plant response rating, 0 to 100 scale ([2]; postemergence, 31 g a.i./ha): 0
- ZEAMD plant response rating, 0 to 100 scale ([2]; postemergence, 62 g a.i./ha): 0
- ZEAMD plant response rating, 0 to 100 scale ([2]; preemergence, 8 g a.i./ha): 0
- ZEAMD plant response rating, 0 to 100 scale ([2]; preemergence, 16 g a.i./ha): 0
- ZEAMD plant response rating, 0 to 100 scale ([2]; preemergence, 31 g a.i./ha): 0
- ZEAMD plant response rating, 0 to 100 scale ([2]; preemergence, 62 g a.i./ha): 0
- Plant response rating (0 to 100 scale) [2, 11]: 0
- Plant response rating (0 to 100 scale) [2, 12]: 0
- Plant response rating (0 to 100 scale) [2, 13]: 0
- AMAPA plant response rating, 0 to 100 scale ([3]; postemergence, 8 g a.i./ha): 28
- AMAPA plant response rating, 0 to 100 scale ([3]; postemergence, 16 g a.i./ha): 38
- AMAPA plant response rating, 0 to 100 scale ([3]; postemergence, 31 g a.i./ha): 33
- AMAPA plant response rating, 0 to 100 scale ([3]; postemergence, 62 g a.i./ha): 60
- AMAPA plant response rating, 0 to 100 scale ([3]; preemergence, 8 g a.i./ha): 0
- AMAPA plant response rating, 0 to 100 scale ([3]; preemergence, 16 g a.i./ha): 26
- AMAPA plant response rating, 0 to 100 scale ([3]; preemergence, 31 g a.i./ha): 50
- AMAPA plant response rating, 0 to 100 scale ([3]; preemergence, 62 g a.i./ha): 45
- ERICA plant response rating, 0 to 100 scale ([4]; postemergence, 8 g a.i./ha): 77
- ERICA plant response rating, 0 to 100 scale ([4]; postemergence, 16 g a.i./ha): 85
- ERICA plant response rating, 0 to 100 scale ([4]; postemergence, 31 g a.i./ha): 92
- ERICA plant response rating, 0 to 100 scale ([4]; postemergence, 62 g a.i./ha): 93
- ERICA plant response rating, 0 to 100 scale ([4]; preemergence, 8 g a.i./ha): 89
- ERICA plant response rating, 0 to 100 scale ([4]; preemergence, 16 g a.i./ha): 100
- ERICA plant response rating, 0 to 100 scale ([4]; preemergence, 31 g a.i./ha): 100
- ERICA plant response rating, 0 to 100 scale ([4]; preemergence, 62 g a.i./ha): 100
- SETFA plant response rating, 0 to 100 scale ([5]; postemergence, 8 g a.i./ha): 37
- SETFA plant response rating, 0 to 100 scale ([5]; postemergence, 16 g a.i./ha): 62
- SETFA plant response rating, 0 to 100 scale ([5]; postemergence, 31 g a.i./ha): 77
- SETFA plant response rating, 0 to 100 scale ([5]; postemergence, 62 g a.i./ha): 92
- SETFA plant response rating, 0 to 100 scale ([5]; preemergence, 8 g a.i./ha): 6
- SETFA plant response rating, 0 to 100 scale ([5]; preemergence, 16 g a.i./ha): 50
- SETFA plant response rating, 0 to 100 scale ([5]; preemergence, 31 g a.i./ha): 84
- SETFA plant response rating, 0 to 100 scale ([5]; preemergence, 62 g a.i./ha): 100
- GLXMA plant response rating, 0 to 100 scale ([6]; postemergence, 8 g a.i./ha): 0
- GLXMA plant response rating, 0 to 100 scale ([6]; postemergence, 16 g a.i./ha): 0
- GLXMA plant response rating, 0 to 100 scale ([6]; postemergence, 31 g a.i./ha): 8
- GLXMA plant response rating, 0 to 100 scale ([6]; postemergence, 62 g a.i./ha): 13
- GLXMA plant response rating, 0 to 100 scale ([6]; preemergence, 8 g a.i./ha): 0
- GLXMA plant response rating, 0 to 100 scale ([6]; preemergence, 16 g a.i./ha): 0
- GLXMA plant response rating, 0 to 100 scale ([6]; preemergence, 31 g a.i./ha): 0
- GLXMA plant response rating, 0 to 100 scale ([6]; preemergence, 62 g a.i./ha): 0
- AMATU plant response rating, 0 to 100 scale ([7]; postemergence, 8 g a.i./ha): 50
- AMATU plant response rating, 0 to 100 scale ([7]; postemergence, 16 g a.i./ha): 57
- AMATU plant response rating, 0 to 100 scale ([7]; postemergence, 31 g a.i./ha): 68
- AMATU plant response rating, 0 to 100 scale ([7]; postemergence, 62 g a.i./ha): 62
- AMATU plant response rating, 0 to 100 scale ([7]; preemergence, 8 g a.i./ha): 0
- AMATU plant response rating, 0 to 100 scale ([7]; preemergence, 16 g a.i./ha): 0
- AMATU plant response rating, 0 to 100 scale ([7]; preemergence, 31 g a.i./ha): 20
- AMATU plant response rating, 0 to 100 scale ([7]; preemergence, 62 g a.i./ha): 30
- AMBEL plant response rating, 0 to 100 scale ([8]; postemergence, 8 g a.i./ha): 82
- AMBEL plant response rating, 0 to 100 scale ([8]; postemergence, 16 g a.i./ha): 82
- AMBEL plant response rating, 0 to 100 scale ([8]; postemergence, 31 g a.i./ha): 92
- AMBEL plant response rating, 0 to 100 scale ([8]; postemergence, 62 g a.i./ha): 97
- AMBEL plant response rating, 0 to 100 scale ([8]; preemergence, 8 g a.i./ha): 0
- AMBEL plant response rating, 0 to 100 scale ([8]; preemergence, 16 g a.i./ha): 26
- AMBEL plant response rating, 0 to 100 scale ([8]; preemergence, 31 g a.i./ha): 55
- AMBEL plant response rating, 0 to 100 scale ([8]; preemergence, 62 g a.i./ha): 100
- ZEAMD plant response rating, 0 to 100 scale ([9]; postemergence, 8 g a.i./ha): 0
- ZEAMD plant response rating, 0 to 100 scale ([9]; postemergence, 16 g a.i./ha): 0
- ZEAMD plant response rating, 0 to 100 scale ([9]; postemergence, 31 g a.i./ha): 0
- ZEAMD plant response rating, 0 to 100 scale ([9]; postemergence, 62 g a.i./ha): 0
- ZEAMD plant response rating, 0 to 100 scale ([9]; preemergence, 8 g a.i./ha): 0
- ZEAMD plant response rating, 0 to 100 scale ([9]; preemergence, 16 g a.i./ha): 0
- ZEAMD plant response rating, 0 to 100 scale ([9]; preemergence, 31 g a.i./ha): 0
- ZEAMD plant response rating, 0 to 100 scale ([9]; preemergence, 62 g a.i./ha): 0
